In this assay the target is Protein arginine deiminase 4 (PAD4) (Homo sapiens, UniProt Q9UM07). The assay can be described thus: PAD4 ammonia release assay. It is filed as biochemical. Put shortly:
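Ammonia release from BAEE substrate (2× mix 600 μM) was measured after 60 min at RT, following 15 min enzyme–compound preincubation (PAD4 2× 20 nM; pH 8.0 HEPES, 2 mM CaCl2, TCEP; 1.25% DMSO). Detection used OPA/DTT/EDTA for 120 min. % inhibition was taken versus reference-compound and DMSO controls; IC50 by four-parameter logistic fit.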

[1] abbreviates: PAD4 ammonia release assay, BAEE substrate, 60 min at RT, read-out: Average IC50 Abs.

Molecules are shown by their SMILES. Read-outs that look alike come from different tables or passages of the source. Some results are limits rather than exact numbers.

The values below come from patent US20250136607A1 (REGOR PHARMACEUTICALS, INC., priority 2021, published 2025).

Protein arginine deiminase 4 (PAD4), sequence (Q9UM07 whole entry): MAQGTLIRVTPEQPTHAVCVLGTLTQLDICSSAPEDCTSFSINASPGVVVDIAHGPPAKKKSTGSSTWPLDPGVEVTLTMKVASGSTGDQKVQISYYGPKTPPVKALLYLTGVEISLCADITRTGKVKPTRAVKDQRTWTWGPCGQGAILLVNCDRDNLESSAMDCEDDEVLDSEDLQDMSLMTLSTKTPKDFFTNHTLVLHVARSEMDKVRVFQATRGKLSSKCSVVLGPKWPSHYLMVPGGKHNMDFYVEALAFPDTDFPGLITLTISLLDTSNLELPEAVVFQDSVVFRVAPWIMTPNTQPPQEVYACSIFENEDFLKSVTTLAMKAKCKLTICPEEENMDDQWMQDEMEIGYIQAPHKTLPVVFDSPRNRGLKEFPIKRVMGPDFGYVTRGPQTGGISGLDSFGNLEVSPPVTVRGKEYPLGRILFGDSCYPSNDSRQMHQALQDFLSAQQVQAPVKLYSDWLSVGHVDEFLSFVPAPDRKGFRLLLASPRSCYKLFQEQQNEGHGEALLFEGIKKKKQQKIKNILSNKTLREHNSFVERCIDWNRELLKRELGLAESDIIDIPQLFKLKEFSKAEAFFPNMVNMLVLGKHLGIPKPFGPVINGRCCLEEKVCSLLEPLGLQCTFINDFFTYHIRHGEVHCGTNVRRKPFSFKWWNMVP

A word on the IC50: it is the concentration that inhibits the measured activity by half. With `CCC1CN(CCCO)c2cccc3cc(-c4nc5cc(C(=O)N6C[C@H]7CC[C@@H]6[C@@H]7N)c(F)c(F)c5n4C)n1c23` (stereo partly drawn) [Example 78, ((1R,4R,7R)-7-amino-2-azabicyclo[2.2.1]heptan-2-yl)(2-(3-ethyl-1-(3-hydroxypropyl)-2,3-dihydro-1H-pyrrolo[1,2,3-de]quinoxalin-5-yl)-6,7-difluoro-1-methyl-1H-benzo[d]imidazol-5-yl)methanone], the concentration for half-maximal inhibition (IC50) under setting [1] lay within 500 to 5000 nM.

As for `Cn1c(-c2cc3ccc4c(c3n2CC2CC2)CCCN4)nc2cc(C(=O)N3C[C@H]4CC[C@@H]3[C@@H]4N)cc(F)c21` [Example 163, ((1R,4R,7R)-7-amino-2-azabicyclo[2.2.1]heptan-2-yl)(2-(1-(cyclopropylmethyl)-6,7,8,9-tetrahydro-1H-pyrrolo[2,3-f]quinolin-2-yl)-7-fluoro-1-methyl-1H-benzo[d]imidazol-5-yl)methanone], the concentration for half-maximal inhibition (IC50) under setting [1] was in the range of 100 to 500 nM.

On to `CCC1CN(CCC(C)(C)O)c2cccc3cc(-c4nc5cc(C(=O)N6C[C@H](N)C[C@@H](F)C6)cc(OC)c5n4C)n1c23` (stereo partly drawn) [Example 83, ((3R,5R)-3-amino-5-fluoropiperidin-1-yl)(2-(3-ethyl-1-(3-hydroxy-3-methylbutyl)-2,3-dihydro-1H-pyrrolo[1,2,3-de]quinoxalin-5-yl)-7-methoxy-1-methyl-1H-benzo[d]imidazol-5-yl)methanon], for which, under setting [1], the IC50 was in the range of 100 to 500 nM.

For the compound `COc1cc(C(=O)N2CCC3(CC3N)C2)cc2nc(-c3cc4cccc5c4n3CCN5CCCO)n(CC3CC3)c12` (stereo not drawn) [Example 52, (1-amino-5-azaspiro[2.4]heptan-5-yl)(1-(cyclopropylmethyl)-2-(1-(3-hydroxypropyl)-2,3-dihydro-1H-pyrrolo[1,2,3-de]quinoxalin-5-yl)-7-methoxy-1H-benzo[d]imidazol-5-yl)methanone], under setting [1], the IC50 is greater than 5000 nM.

With `CCC1CNc2c(Cl)ccc3cc(-c4nc5cc(C(=O)N6C[C@H]7CC[C@@H]6[C@@H]7N)cc(F)c5n4C)n1c23` (stereo partly drawn) [Example 125, ((1R,4R,7R)-7-amino-2-azabicyclo[2.2.1]heptan-2-yl)(2-(9-chloro-3-ethyl-2,3-dihydro-1H-pyrrolo[1,2,3-de]quinoxalin-5-yl)-7-fluoro-1-methyl-1H-benzo[d]imidazol-5-yl)methanone], under setting [1], the half-inhibitory concentration (IC50) is greater than 5000 nM.

With `COc1cc(C(=O)N2CCC[C@@H](N)C2)cc2nc(-c3cc4cccc5c4n3CCC(=O)N5)n(C)c12` [Example 8, (R)-6-(5-(3-aminopiperidine-1-carbonyl)-7-methoxy-1-methyl-1H-benzo[d]imidazol-2-yl)-3,4-dihydro-[1,4]diazepino[3,2,1-hi]indol-2(1H)-one], under setting [1], the IC50 is greater than 5000 nM.

As for `COc1cc(C(=O)N2C[C@H](N)C3(CC3)C2)cc2nc(-c3cc4cccc5c4n3CCN5CCCO)n(CC3CC3)c12` [Example 60, (R)-(7-amino-5-azaspiro[2.4]heptan-5-yl)(1-(cyclopropylmethyl)-2-(1-(3-hydroxypropyl)-2,3-dihydro-1H-pyrrolo[1,2,3-de]quinoxalin-5-yl)-7-methoxy-1H-benzo[d]imidazol-5-yl)methanone], under setting [1], the IC50 is greater than 5000 nM.

On to `COc1cc(C(=O)N2C[C@H](N)C[C@@H](F)C2)cc2nc(-c3cc4cccc5c4n3CCN5CCCNC(C)=O)n(C)c12` [Example 1, N-(3-(5-(5-((3R,5R)-3-amino-5-fluoropiperidine-1-carbonyl)-7-methoxy-1-methyl-1H-benzo[d]imidazol-82-yl)-2,3-dihydro-1H-pyrrolo[1,2,3-de]quinoxalin-1-yl)propyl)acetamide], for which the IC50 under setting [1] was in the range of 500 to 5000 nM.

Regarding `CCC1CNc2c(C)ccc3cc(-c4nc5cc(C(=O)N6C[C@H]7CC[C@@H]6[C@@H]7N)cc(F)c5n4C)n1c23` (stereo partly drawn) [Example 132, ((1R,4R,7R)-7-amino-2-azabicyclo[2.2.1]heptan-2-yl)(2-(3-ethyl-9-methyl-2,3-dihydro-1H-pyrrolo[1,2,3-de]quinoxalin-5-yl)-7-fluoro-1-methyl-1H-benzo[d]imidazol-5-yl)methanone], the IC50 under setting [1] fell in the range of 100 to 500 nM.

For `COc1cc(C(=O)N2CCC[C@@](C)(N)C2)cc2nc(-c3cc4cccc5c4n3CCN5CCCO)n(C)c12` [Example 16, (R)-(3-amino-3-methylpiperidin-1-yl)(2-(1-(3-hydroxypropyl)-2,3-dihydro-1H-pyrrolo[1,2,3-de]quinoxalin-5-yl)-7-methoxy-1-methyl-1H-benzo[d]imidazol-5-yl)methanone], the IC50 under setting [1] was greater than 5000 nM.

As for `CC[C@@H]1CN(CCCO)c2cccc3cc(-c4nc5cc(C(=O)N6C[C@H]7CC[C@@H]6[C@@H]7N)cc(F)c5n4C)n1c23` [Example 70, ((1R,4R,7R)-7-amino-2-azabicyclo[2.2.1]heptan-2-yl)(2-((R)-3-ethyl-1-(3-hydroxypropyl)-2,3-dihydro-1H-pyrrolo[1,2,3-de]quinoxalin-5-yl)-7-fluoro-1-methyl-1H-benzo[d]imidazol-5-yl)methanone], the IC50 under setting [1] is greater than 5000 nM.

Consider `COc1cc(C(=O)N2CC[C@@H](N)C2)cc2nc(-c3cc4cccc5c4n3CCN5CCCO)n(C)c12` [Example 15, (R)-(3-aminopyrrolidin-1-yl)(2-(1-(3-hydroxypropyl)-2,3-dihydro-1H-pyrrolo[1,2,3-de]quinoxalin-5-yl)-7-methoxy-1-methyl-1H-benzo[d]imidazol-5-yl)methanone], for which the IC50 under setting [1] is greater than 5000 nM.

Take `Cn1c(-c2cc3ccc4c(c3n2CC2CC2)CC(=O)N4)nc2cc(C(=O)N3C[C@H]4CC[C@@H]3[C@@H]4N)cc(F)c21` [Example 145, 2-(5-((1R,4R,7R)-7-amino-2-azabicyclo[2.2.1]heptane-2-carbonyl)-7-fluoro-1-methyl-1H-benzo[d]imidazol-2-yl)-1-(cyclopropylmethyl)-6,8-dihydropyrrolo[2,3-e]indol-7(1H)-one]: the IC50 under setting [1] lay within 500 to 5000 nM.

With `COc1cc(C(=O)N2CC[C@@H](F)[C@@H](N)C2)cc2nc(-c3cc4cccc5c4n3CCN5CCCO)n(C)c12` [Example 20, ((3S,4R)-3-amino-4-fluoropiperidin-1-yl)(2-(1-(3-hydroxypropyl)-2,3-dihydro-1H-pyrrolo[1,2,3-de]quinoxalin-5-yl)-7-methoxy-1-methyl-1H-benzo[d]imidazol-5-yl)methanone], under setting [1], the half-maximal inhibitory concentration (IC50) was 500 to 5000 nM.

In the case of `COc1cc(C(=O)N2C[C@H](N)C[C@@H](F)C2)cc2nc(-c3cc4cccc5c4n3CCN5C(=O)CO)n(C)c12` [Example 28, 1-(5-(5-((3R,5R)-3-amino-5-fluoropiperidine-1-carbonyl)-7-methoxy-1-methyl-1H-benzo[d]imidazol-2-yl)-2,3-dihydro-1H-pyrrolo[1,2,3-de]quinoxalin-1-yl)-2-hydroxyethan-1-one], the IC50 under setting [1] is 500 to 5000 nM.

With `Cn1c(-c2cc3ccc4c(c3n2CC2CC2)CCN4)nc2cc(C(=O)N3C[C@H]4CC[C@@H]3[C@@H]4N)cc(F)c21` [Example 143, ((1R,4R,7R)-7-amino-2-azabicyclo[2.2.1]heptan-2-yl)(2-(1-(cyclopropylmethyl)-1,6,7,8-tetrahydropyrrolo[2,3-e]indol-2-yl)-7-fluoro-1-methyl-1H-benzo[d]imidazol-5-yl)methanone], the IC50 under setting [1] lay in the range of 100 to 500 nM.

For `Cn1c(-c2cc3ccn4c(=O)[nH]nc4c3n2CC2CC2)nc2cc(C(=O)N3C[C@H]4CC[C@@H]3[C@@H]4N)cc(F)c21` [Example 160, 8-(5-((1R,4R,7R)-7-amino-2-azabicyclo[2.2.1]heptane-2-carbonyl)-7-fluoro-1-methyl-1H-benzo[d]imidazol-2-yl)-9-(cyclopropylmethyl)-2,9-dihydro-3H-pyrrolo[2,3-c][1,2,4]triazolo[4,3-a]pyridin-3-one], under setting [1], the IC50 lay within 500 to 5000 nM.

Regarding `CCC1CNc2c(F)ccc3cc(-c4nc5cc(C(=O)N6C[C@H]7CC[C@@H]6[C@@H]7N)cc(F)c5n4C)n1c23` (stereo partly drawn) [Example 131, ((1R,4R,7R)-7-amino-2-azabicyclo[2.2.1]heptan-2-yl)(2-(3-ethyl-9-fluoro-2,3-dihydro-1H-pyrrolo[1,2,3-de]quinoxalin-5-yl)-7-fluoro-1-methyl-1H-benzo[d]imidazol-5-yl)methanone], the half-inhibitory concentration (IC50) under setting [1] fell in the range of 100 to 500 nM.

On to `COc1cc(C(=O)N2CCC[C@](C)(N)C2)cc2nc(-c3cc4cccc5c4n3CCN5CCCO)n(C)c12` [Example 19, (S)-(3-amino-3-methylpiperidin-1-yl)(2-(1-(3-hydroxypropyl)-2,3-dihydro-1H-pyrrolo[1,2,3-de]quinoxalin-5-yl)-7-methoxy-1-methyl-1H-benzo[d]imidazol-5-yl)methanone], for which the 50% inhibitory concentration (IC50) under setting [1] was greater than 5000 nM.

Consider `COc1cc(C(=O)N2C[C@H](N)CC(F)(F)C2)cc2nc(-c3cc4cccc5c4n3CCN5CCCO)n(C)c12` [Example 18, (R)-(5-amino-3,3-difluoropiperidin-1-yl)(2-(1-(3-hydroxypropyl)-2,3-dihydro-1H-pyrrolo[1,2,3-de]quinoxalin-5-yl)-7-methoxy-1-methyl-1H-benzo[d]imidazol-5-yl)methanone], for which the IC50 under setting [1] fell in the range of 500 to 5000 nM.

For the compound `CCC1CN(CCCO)c2cccc3cc(-c4nc5cc(C(=O)N6C[C@H](N)C[C@@H](F)C6)cc(F)c5n4CC)n1c23` (stereo partly drawn) [Example 99, ((3R,5R)-3-amino-5-fluoropiperidin-1-yl)(1-ethyl-2-(3-ethyl-1-(3-hydroxypropyl)-2,3-dihydro-1H-pyrrolo[1,2,3-de]quinoxalin-5-yl)-7-fluoro-1H-benzo[d]imidazol-5-yl)methanone], under setting [1], the IC50 lay in the range of 100 to 500 nM.

Regarding `CC1CNc2cccc3cc(-c4nc5cc(C(=O)N6CCC[C@@H](N)C6)ccc5n4C)n1c23` (stereo partly drawn) [Example 167, ((R)-3-aminopiperidin-1-yl)(1-methyl-2-(3-methyl-2,3-dihydro-1H-pyrrolo[1,2,3-de]quinoxalin-5-yl)-1H-benzo[d]imidazol-5-yl)methanone], the IC50 by setting is: (PAD4 activity comparison, read-out: PAD4 Ammonia assay IC50) 4090 nM; under setting [1], 500 to 5000 nM.

`Cn1c(-c2cc3cccc4c3n2[C@H](C2CC2)CN4)nc2cc(C(=O)N3C[C@H]4CC[C@@H]3[C@@H]4N)cc(F)c21` (single isomer, unassigned) [Example 109]: under setting [1], the half-inhibitory concentration (IC50) is 500 to 5000 nM.
